According to US10478157B2, “Methods for drug delivery” (Presage Biosciences, Inc., priority 2011, dated 2019):

Tested on: mouse xenograft of Human Lymphoma Ramos cell line
Assay: Vincristine delivered through a microdialysis probe into a solid tumor; Cleaved Caspase 3 / DAPI staining
Type: in vivo
Settings: intratumoral delivery by microdialysis probe; Cleaved Caspase 3 Fluorophore 555 for cell death, DAPI nuclear stain; FIG. 13
From the text: FIGS. 13a and 13b show drug delivered through microdialysis probe induces spatially restricted drug specific tumor cell death embodying principles of the present invention.
Little or no evidence of tissue disruption due to insertion was observed. The membrane maintained its integrity through insertion and tissue processing, including microtome sectioning. The solid tumor is a mouse xenograft of Human Lymphoma Ramos cell line. The biomarkers are DAPI for nuclear stain and Cleaved Caspase 3 Fluorophore 555 for cell death in response to Vincristine as delivery agent.

CC[C@]1(O)C[C@H]2CN(CCc3c([nH]c4ccccc34)[C@@](C(=O)OC)(c3cc4c(cc3OC)N(C=O)[C@H]3[C@@](O)(C(=O)OC)[C@H](OC(C)=O)[C@]5(CC)C=CCN6CC[C@]43[C@@H]65)C2)C1 [Vincristine]
triggered cellular response (Cleaved Caspase 3 biomarker for cell death) around the delivery axis: clear manifestation of triggered cellular response
